Reference: patent US10232035B2, “Conditionally replication deficient herpes virus and use thereof in vaccines” (THE REGENTS OF THE UNIVERSITY OF COLORADO, A BODY CORPORATE, priority 2012, dated 2019)

Tested on: SVV mutant 2
Details: decreasing amounts of TMP, FIG. 6
Source text: Replication of mutant 2 was monitored by GFP expression (FIG. 5). […] GFP expression was monitored using an inverted microscope.

SMILES: COc1cc(Cc2cnc(N)nc2N)cc(OC)c1OC [TMP, trimethoprim]
- lowest amount of TMP that can be used with SVV mutant 2: 0.05 µM
